Among the data in US20230340011A1 (Asteroid Therapeutics, priority 2022, published 2023) are EC50 and IC50 values, retold here.

Molecules are shown by their SMILES. Like-named read-outs stand apart in the source and are kept apart here.

Usually IC50 stands for the point on the concentration scale where inhibition reaches its midpoint. A low value points to greater potency.

Experiment [1] concerns the target LXRβ (Homo sapiens (Human), UniProt P55055). Description: In vitro assay LXRβ: PathHunter NHR CHO cells, LXRβ / Steroid Receptor Co-activator Peptide enzyme fragment complementation. The format is cell-based. Conditions: PathHunter NHR CHO cells, full-length human LXRβ and SRCP, chemiluminescent signal; read-out: LXRβ PPI. The essentials: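 Co-activator recruitment measured by chemiluminescence after signal generation. The CHO line carries full-length human LXRβ tagged with ProLink and an SRCP–enzyme acceptor fusion in the nucleus; cells sat overnight at 37° C before testing, in charcoal-dextran filtered serum medium with 1% final vehicle.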

The target in experiment [2] is SREBP-2 (Homo sapiens (Human), UniProt Q12772). Description: In vitro assay SREBP-2: PathHunter U2OS SREBP-2 Nuclear Translocation Cell Line, U18666A-stimulated. The format is cell-based.
[3] abbreviates: PathHunter U2OS SREBP-2 nuclear translocation cells, U18666A 10 μM, overnight (16 hours).

LXRβ, sequence (P55055 whole entry, the tested form may be a part): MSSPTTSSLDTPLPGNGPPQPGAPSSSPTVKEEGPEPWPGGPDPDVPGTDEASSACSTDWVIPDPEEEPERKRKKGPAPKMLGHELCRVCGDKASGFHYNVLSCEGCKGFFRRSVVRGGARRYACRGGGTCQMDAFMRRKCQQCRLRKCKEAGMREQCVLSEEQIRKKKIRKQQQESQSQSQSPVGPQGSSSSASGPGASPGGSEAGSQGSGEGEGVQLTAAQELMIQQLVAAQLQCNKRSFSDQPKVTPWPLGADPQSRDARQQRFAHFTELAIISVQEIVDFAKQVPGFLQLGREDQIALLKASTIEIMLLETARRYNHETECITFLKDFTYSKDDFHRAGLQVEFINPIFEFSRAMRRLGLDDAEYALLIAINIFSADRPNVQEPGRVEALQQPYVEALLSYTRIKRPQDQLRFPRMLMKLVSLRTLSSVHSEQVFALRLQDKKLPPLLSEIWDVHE

Consider `CC1CN(C(=O)N2CCN(C(=O)CC[C@@H](C)[C@H]3CC[C@H]4[C@@H]5CC=C6C[C@@H](O)CC[C@]6(C)[C@H]5CC[C@]34C)CC2)C1` [Example 664, (R)-4-((3S,8S,9S,10R,13R,14S,17R)-3-hydroxy-10,13-dimethyl-2,3,4,7,8,9,10,11,12,13,14,15,16,17-tetradecahydro-1H-cyclopenta[a]phenanthren-17-yl)-1-(4-(3-methylazetidine-1-carbonyl)piperazin-1-yl)pentan-1-one], for which the EC50 in experiment [1] is more than 10 µM. In experiment [2] (setting [3]), this compound yielded a half-maximal inhibitory concentration (IC50) of less than 250 nM.
For `C[C@H](CCC(=O)N1CCC(S(=O)(=O)N(C)C)CC1)[C@H]1CC[C@H]2[C@@H]3CC=C4C[C@@H](O)CC[C@]4(C)[C@H]3CC[C@]12C` [Example 413, 1-((R)-4-((3S,8S,9S,10R,13R,14S,17R)-3-hydroxy-10,13-dimethyl-2,3,4,7,8,9,10,11,12,13,14,15,16,17-tetradecahydro-1H-cyclopenta[a]phenanthren-17-yl)pentanoyl)-N,N-dimethylpiperidine-4-sulfonamide], in that order: more than 10 µM and 250 to 1000 nM.
On to `C[C@H](CCC(=O)N1CCN(c2ccncn2)[C@@H](C)C1)[C@H]1CC[C@H]2[C@@H]3CC=C4C[C@@H](O)CC[C@]4(C)[C@H]3CC[C@]12C` [Example 575, (4R)-4-[(1R,3aS,3bS,7S,9aR,9bS,11aR)-7-hydroxy-9a,11a-dimethyl-1H,2H,3H,3aH,3bH,4H,6H,7H,8H,9H,9aH,9bH,10H,11H,11aH-cyclopenta[a]phenanthren-1-yl]-1-[(3S)-3-methyl-4-(pyrimidin-4-yl)piperazin-1-yl]pentan-1-one], for which the EC50 in experiment [1] was more than 10 µM. Also, in experiment [2] (setting [3]), the IC50 was less than 250 nM.
The matching figures for `COc1cccnc1C1CCN(C(=O)CC[C@@H](C)[C@H]2CC[C@H]3[C@@H]4CC=C5C[C@@H](O)CC[C@]5(C)[C@H]4CC[C@]23C)CC1` [Example 622, (R)-4-((3S,8S,9S,10R,13R,14S,17R)-3-hydroxy-10,13-dimethyl-2,3,4,7,8,9,10,11,12,13,14,15,16,17-tetradecahydro-1H-cyclopenta[a]phenanthren-17-yl)-1-(4-(3-methoxypyridin-2-yl)piperidin-1-yl)pentan-1-one]: more than 10 µM and less than 250 nM.
Take `C[C@H](CCC(=O)N1CCN(C(=O)C(C)(C)O)C[C@@H]1C)[C@H]1CC[C@H]2[C@@H]3CC=C4C[C@@H](O)CC[C@]4(C)[C@H]3CC[C@]12C` [Example 653, (R)-4-((3S,8S,9S,10R,13R,14S,17R)-3-hydroxy-10,13-dimethyl-2,3,4,7,8,9,10,11,12,13,14,15,16,17-tetradecahydro-1H-cyclopenta[a]phenanthren-17-yl)-1-((S)-4-(2-hydroxy-2-methylpropanoyl)-2-methylpiperazin-1-yl)pentan-1-one]: in experiment [1], the EC50 is more than 10 µM. Further, the IC50 in experiment [2] (setting [3]) is less than 250 nM.
The matching figures for `C[C@H](CCc1ccncc1)[C@H]1CC[C@H]2[C@@H]3CC=C4C[C@@H](O)CC[C@]4(C)[C@H]3CC[C@]12C` [Example 160, (3S,8S,9S,10R,13R,14S,17R)-10,13-dimethyl-17-((R)-4-(pyridin-4-yl)butan-2-yl)-2,3,4,7,8,9,10,11,12,13,14,15,16,17-tetradecahydro-1H-cyclopenta[a]phenanthren-3-ol]: more than 10 µM and 250 to 1000 nM.
For `C[C@H](CCC(=O)N1CCN(C(=O)OC2CC2)[C@@H](C)C1)[C@H]1CC[C@H]2[C@@H]3CC=C4C[C@@H](O)CC[C@]4(C)[C@H]3CC[C@]12C` [Example 570, Cyclopropyl(S)-4-((R)-4-((3S,8S,9S,10R,13R,14S,17R)-3-hydroxy-10,13-dimethyl-2,3,4,7,8,9,10,11,12,13,14,15,16,17-tetradecahydro-1H-cyclopenta[a]phenanthren-17-yl)pentanoyl)-2-methylpiperazine-1-carboxylate], the EC50 in experiment [1] is more than 10 µM. In experiment [2] (setting [3]), this compound showed an IC50 of less than 250 nM.
The matching figures for `C[C@H](CCC(=O)N1CC2(C1)CC(C)(O)C2)[C@H]1CC[C@H]2[C@@H]3CC=C4C[C@@H](O)CC[C@]4(C)[C@H]3CC[C@]12C` [Example 101, (R)-4-((3S,8S,9S,10R,13R,14S,17R)-3-hydroxy-10,13-dimethyl-2,3,4,7,8,9,10,11,12,13,14,15,16,17-tetradecahydro-1H-cyclopenta[a]phenanthren-17-yl)-1-(6-hydroxy-6-methyl-2-azaspiro[3.3]heptan-2-yl)pentan-1-one]: more than 10 µM and less than 250 nM.
Regarding `C[C@H](CCC(=O)N(C)C)[C@H]1CC[C@H]2[C@@H]3C[C@@H](O)[C@H]4C[C@@H](O)CC[C@]4(C)[C@H]3CC[C@]12C` [Example C1, (R)-4-((3S,5S,6R,8S,9S,10R,13R,14S,17R)-3,6-dihydroxy-10,13-dimethylhexadecahydro-1H-cyclopenta[a]phenanthren-17-yl)-N,N-dimethylpentanamide], the EC50 in experiment [1] is more than 10 µM. This compound also had an IC50 in experiment [2] (setting [3]) of more than 10000 nM.
For `C[C@H](CCC(=O)N(c1ccncc1)C1CC1)[C@H]1CC[C@H]2[C@@H]3CC=C4C[C@@H](O)CC[C@]4(C)[C@H]3CC[C@]12C` [Example 548, (4R)-4-[(1R,3aS,3bS,7S,9aR,9bS,11aR)-7-hydroxy-9a,11a-dimethyl-1H,2H,3H,3aH,3bH,4H,6H,7H,8H,9H,9aH,9bH,10H,11H,11aH-cyclopenta[a]phenanthren-1-yl]-N-cyclopropyl-N-(pyridin-4-yl)pentanamide], in that order: 0.25 to 1 µM and less than 250 nM.
Turning to `C[C@H](CCC(=O)N1CCC(C)(C(=O)N(C)C)CC1)[C@H]1CC[C@H]2[C@@H]3CC=C4C[C@@H](O)CC[C@]4(C)[C@H]3CC[C@]12C` [Example 87, 1-((R)-4-((3S,8S,9S,10R,13R,14S,17R)-3-hydroxy-10,13-dimethyl-2,3,4,7,8,9,10,11,12,13,14,15,16,17-tetradecahydro-1H-cyclopenta[a]phenanthren-17-yl)pentanoyl)-N,N,4-trimethylpiperidine-4-carboxamide], the EC50 in experiment [1] was more than 10 µM. Further, in experiment [2] (setting [3]), the IC50 lay in the range of 250 to 1000 nM.
For `C[C@H](CCC(=O)N1CCC(N(C)C(=O)c2ccncc2)CC1)[C@H]1CC[C@H]2[C@@H]3CC=C4C[C@@H](O)CC[C@]4(C)[C@H]3CC[C@]12C` [Example 288, N-(1-((R)-4-((3S,8S,9S,10R,13R,14S,17R)-3-hydroxy-10,13-dimethyl-2,3,4,7,8,9,10,11,12,13,14,15,16,17-tetradecahydro-1H-cyclopenta[a]phenanthren-17-yl)pentanoyl)piperidin-4-yl)-N-methylisonicotinamide], in that order: more than 10 µM and 250 to 1000 nM.
As for `C[C@H](CCC(=O)N1CCN(C(=O)N(C)C2CC2)CC1)[C@H]1CC[C@H]2[C@@H]3CC=C4C[C@@H](O)CC[C@]4(C)[C@H]3CC[C@]12C` [Example 211, N-cyclopropyl-4-((R)-4-((3S,8S,9S,10R,13R,14S,17R)-3-hydroxy-10,13-dimethyl-2,3,4,7,8,9,10,11,12,13,14,15,16,17-tetradecahydro-1H-cyclopenta[a]phenanthren-17-yl)pentanoyl)-N-methylpiperazine-1-carboxamide], the EC50 in experiment [1] was more than 10 µM. In experiment [2], this compound displayed a concentration for half-maximal inhibition (IC50) of less than 250 nM.
